How the values were obtained:
[1] = target: T1, Humicola insolens cellobiose oxidase (CBO, 92 kDa, pI 4.0) (Mycothermus thermophilus, UniProt Q9P8H5); conditions: for Km: read-out: Km (electron donor), pH 7.5; for kcat (electron donor): sugar + 90 μM DCPIP, mol oxidized cellobiose/s/mol enzyme
T1 sequence (Q9P8H5 24-785): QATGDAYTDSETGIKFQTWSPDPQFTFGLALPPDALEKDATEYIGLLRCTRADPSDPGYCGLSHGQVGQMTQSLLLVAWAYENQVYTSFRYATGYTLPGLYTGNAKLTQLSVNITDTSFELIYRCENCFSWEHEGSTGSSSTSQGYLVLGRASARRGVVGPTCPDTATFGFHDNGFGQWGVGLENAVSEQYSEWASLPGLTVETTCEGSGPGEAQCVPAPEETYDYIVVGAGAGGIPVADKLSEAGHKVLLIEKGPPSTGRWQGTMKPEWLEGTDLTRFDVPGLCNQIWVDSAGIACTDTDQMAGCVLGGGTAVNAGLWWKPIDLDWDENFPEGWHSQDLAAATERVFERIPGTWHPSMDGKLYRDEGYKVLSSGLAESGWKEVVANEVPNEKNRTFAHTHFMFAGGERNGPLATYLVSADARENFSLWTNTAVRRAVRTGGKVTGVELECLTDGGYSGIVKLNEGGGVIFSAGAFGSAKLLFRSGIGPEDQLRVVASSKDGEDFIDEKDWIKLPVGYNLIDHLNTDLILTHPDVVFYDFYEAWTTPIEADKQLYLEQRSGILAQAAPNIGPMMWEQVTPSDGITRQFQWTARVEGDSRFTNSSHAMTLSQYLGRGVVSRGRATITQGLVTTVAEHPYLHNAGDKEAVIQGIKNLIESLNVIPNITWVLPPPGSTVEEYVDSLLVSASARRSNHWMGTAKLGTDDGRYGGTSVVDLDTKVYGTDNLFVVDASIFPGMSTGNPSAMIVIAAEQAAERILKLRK
Experimental: The measurements were performed in 0.1M sodium phosphate buffer at pH 7.5 at 40° C. 450 μl of a mixture of 100 μM of 2,6-Dichlorophenol-indophenol (DCPIP, Merck), 250 μM of cellobiose (Sigma) were mixed with 50 μl enzyme. Units of activity equals μmol cellobiose oxidized (DCPIP reduced) per min.
All measurements were performed in 0.1M sodium phosphate buffer, pH 7.5, at 40° C. […] The reactions were monitored for 400 s as changes in absorbance at the appropirate wavelength (see above). […] The catalytic constants (kcat) were expressed as mol of oxidized cellobiose/s/mol of enzyme. […] The kinetic constants were determined using Lineweaver-Burke plots and were the result of dual determinations.

EG A (cellulase) = assay: Coupled cellobiose oxidase/DCPIP assay for cellulases; assay type: biochemical; conditions: reduced cellodextrin substrate
Excerpt: (§1) The ability of the cellobiose oxidase to oxidize cellodextrins by means of an electron acceptor was utilized in an assay for cellulases. […] With this assay the kinetic constants for reduced cellodextrins of 5 different cellulases have been determined (table 2). […] The enzymes show very different substrate specificity, some of them requiring quite long substrates making it impossible to use the umbelliferyl cellobiosides and lactosides available for steady state kinetic.

EG C (cellulase) = assay: as above; assay type: biochemical; conditions: reduced cellodextrin substrate
Excerpt: as §1

Endo B (cellulase) = assay: as above; assay type: biochemical; conditions: reduced cellodextrin substrate
Excerpt: as §1

[2] = test system: Endo (cellulase, first line of the table); assay: as above; assay type: biochemical; conditions: reduced cellodextrin substrate
Excerpt: as §1

[3] = 0.1M sodium phosphate buffer, pH 7.5, 40° C.

OC1OC[C@@H](O[C@@H]2OC[C@@H](O)[C@H](O)[C@H]2O)[C@H](O)[C@H]1O (stereo partly shown) [Xylobiose]
Km [1]: 7100 µM
kcat (electron donor) [1, 3]: 2.15 s⁻¹

OC[C@@H](O)[C@@H](O[C@@H]1O[C@H](CO)[C@@H](O[C@@H]2O[C@H](CO)[C@@H](O[C@@H]3O[C@H](CO)[C@@H](O[C@@H]4O[C@H](CO)[C@@H](O[C@@H]5O[C@H](CO)[C@@H](O)[C@H](O)[C@H]5O)[C@H](O)[C@H]4O)[C@H](O)[C@H]3O)[C@H](O)[C@H]2O)[C@H](O)[C@H]1O)[C@H](O)[C@@H](O)CO [Red. DP6]
Km (EG A (cellulase)): 54 µM
kcat (EG A (cellulase)): 0.15 s⁻¹
Km (EG C (cellulase)): 71 µM
kcat (EG C (cellulase)): 11 s⁻¹
Km (Endo B (cellulase)): 52 µM
kcat (Endo B (cellulase)): 14 s⁻¹

OC[C@@H](O)[C@@H](O[C@@H]1O[C@H](CO)[C@@H](O[C@@H]2O[C@H](CO)[C@@H](O[C@@H]3O[C@H](CO)[C@@H](O[C@@H]4O[C@H](CO)[C@@H](O)[C@H](O)[C@H]4O)[C@H](O)[C@H]3O)[C@H](O)[C@H]2O)[C@H](O)[C@H]1O)[C@H](O)[C@@H](O)CO [Red. DP5]
Km (EG A (cellulase)): 460 µM
kcat (EG A (cellulase)): 0.00 s⁻¹
Km (EG C (cellulase)): 68 µM
kcat (EG C (cellulase)): 13 s⁻¹
Km [2]: 14 µM
kcat [2]: 40 s⁻¹
Km (Endo B (cellulase)): 150 µM
kcat (Endo B (cellulase)): 0.86 s⁻¹

OC[C@H]1OC(O)[C@H](O)[C@@H](O)[C@@H]1O (stereo partly shown) [Glucose]
kcat (electron donor) [1, 3]: 0 s⁻¹

OC[C@@H](O)[C@@H](O[C@@H]1O[C@H](CO)[C@@H](O[C@@H]2O[C@H](CO)[C@@H](O[C@@H]3O[C@H](CO)[C@@H](O)[C@H](O)[C@H]3O)[C@H](O)[C@H]2O)[C@H](O)[C@H]1O)[C@H](O)[C@@H](O)CO [Red. DP4]
kcat (EG A (cellulase)): 0 s⁻¹
Km (EG C (cellulase)): 1600 µM
kcat (EG C (cellulase)): 0.43 s⁻¹
Km [2]: 26 µM
kcat [2]: 29 s⁻¹
Km (Endo B (cellulase)): 1500 µM
kcat (Endo B (cellulase)): 0.84 s⁻¹

CC(C)(C)C1=CC(=O)C(=O)C(C(C)(C)C)=C1 [Benzoquinone, 3,5-di-tert-butyl-1,2-benzoquinone]
kcat (electron acceptor) ([1]; electron acceptor + 225 μM cellobiose, 0.1M sodium phosphate buffer, pH 7.5, 40° C.): 15 s⁻¹

OC[C@H]1O[C@@H](O[C@H]2[C@H](O)[C@@H](O)[C@H](O[C@H]3[C@H](O)[C@@H](O)[C@H](O[C@H]4[C@H](O)[C@@H](O)[C@H](O[C@H]5[C@H](O)[C@@H](O)C(O)O[C@@H]5CO)O[C@@H]4CO)O[C@@H]3CO)O[C@@H]2CO)[C@H](O)[C@@H](O)[C@@H]1O (stereo partly shown) [Cellopentaose]
Km [1]: 17 µM
kcat (electron donor) [1, 3]: 8.3 s⁻¹

OC[C@H]1O[C@@H](O[C@H]2[C@H](O)[C@@H](O)[C@H](O[C@H]3[C@H](O)[C@@H](O)[C@H](O[C@H]4[C@H](O)[C@@H](O)C(O)O[C@@H]4CO)O[C@@H]3CO)O[C@@H]2CO)[C@H](O)[C@@H](O)[C@@H]1O (stereo partly shown) [Cellotetraose]
kcat (electron donor) [1, 3]: 8.5 s⁻¹

CC(=O)N[C@H]1C(O)O[C@H](CO)[C@@H](O[C@@H]2O[C@H](CO)[C@H](O)[C@H](O)[C@H]2O)[C@@H]1O (stereo partly shown) [N-Acetyllactosamine]
kcat (electron donor) [1, 3]: 0 s⁻¹

CC(=O)N[C@H]1[C@H](O[C@H]2[C@H](O)[C@@H](NC(C)=O)C(O)O[C@@H]2CO)O[C@H](CO)[C@@H](O)[C@@H]1O (stereo partly shown) [N,N-Diacetylchitobiose]
kcat (electron donor) [1, 3]: 0 s⁻¹

OC[C@H]1O[C@@H](O[C@H]2[C@H](O)[C@@H](O)[C@H](O[C@H]3[C@H](O)[C@@H](O)C(O)O[C@@H]3CO)O[C@@H]2CO)[C@H](O)[C@@H](O)[C@@H]1O (stereo partly shown) [Cellotriose]
kcat (electron donor) [1, 3]: 8.5 s⁻¹
